Measured values: patent US10172868B2, “Substituted quinazolines for inhibiting kinase activity” (NeuPharma, Inc., priority 2013, dated 2019)

How the values were obtained:
H3255 cells = assay: Inhibition of cancer cell growth, MTT assay, H3255; settings: Homo sapiens, NCI-H3255, 72 h, read-out: IC50 in H3255 cells
EGFR (ErbB1) T790M = EGFR (ErbB1) T790M (Homo sapiens (Human), UniProt P00533, T790M); assay: Z'-LYTE kinase inhibition assay, EGFR T790M; format: biochemical; settings: read-out: % inhibition against EGFR T790M (Compound at 1 μM)
Method: Inhibitory activities of compounds against BTK, EGFR and EGFR mutants (EGFR L858R, EGFR T790M, EGFR L858R/T790M), FGFR1, FGFR2, JAK2, JAK3 and KDR were measured by Invitrogen using Z'-LYTE® Method as briefly described in the following. Test Compounds are screened in 1% DMSO (final) in the well. For 10 point titrations, 3-fold serial dilutions are conducted from the starting concentration. All ATP Solutions are diluted to a 4× working concentration in Kinase Buffer (50 mM HEPES pH 7.5, 0.01% BRIJ-35, 10 mM MgCl2, 1 mM EGTA). Peptide/Kinase Mixtures are diluted to a 2× working concentration in the appropriate Kinase Buffers as described below. (iii) Peptide/Kinase Mixtures for Measurement of EGFR (ErbB1) T790M: […] After the 1 hour Kinase Reaction incubation, 5 μL of a 1:64 dilution of Development Reagent B is added. Reaction starts by 30-second shaking of mixture consisting of 2.5 μL 4× test compound, […] 2× kinase reaction mixture and 2.5 μL 4×ATP Solution on Bar-coded Corning, low volume NBS, black 384-well plate (Corning Cat. #3676). Then the mixture is incubated for 60-minute at room temperature for the kinase reaction, followed by addition of 5 μL of a 1:1024 dilution of development reagent A and 30-second plate shake. The mixture is then incubated for another 60-minute at room temperature for development reaction. Finally fluorescence is read by plate reader.

A431 cells = assay: cells; settings: Homo sapiens, A-431, 72 h, read-out: IC50 in A431 cells
JAK2 = JAK2 (Homo sapiens (Human), UniProt O60674); assay: Z'-LYTE kinase inhibition assay, JAK2; format: biochemical; settings: compound at 0.041 μM; read-out: % inhibition against JAK2
Method: (§1) Inhibitory activities of compounds against BTK, EGFR and EGFR mutants (EGFR L858R, EGFR T790M, EGFR L858R/T790M), FGFR1, FGFR2, JAK2, JAK3 and KDR were measured by Invitrogen using Z'-LYTE® Method as briefly described in the following.
(§2) Test Compounds are screened in 1% DMSO (final) in the well. For 10 point titrations, 3-fold serial dilutions are conducted from the starting concentration. All ATP Solutions are diluted to a 4× working concentration in Kinase Buffer (50 mM HEPES pH 7.5, 0.01% BRIJ-35, 10 mM MgCl2, 1 mM EGTA). Peptide/Kinase Mixtures are diluted to a 2× working concentration in the appropriate Kinase Buffers as described below.
(v) Peptide/Kinase Mixtures for Measurement of JAK2:
(§3) The 2×JAK2/Tyr 06 mixture is prepared in 50 mM HEPES pH 7.5, 0.01% BRIJ-35, 10 mM MgCl2, 1 mM EGTA. The final 10 μL Kinase Reaction consists of 0.06-0.81 ng JAK2 and 2 μM Tyr 06 in 50 mM HEPES pH 7.5, 0.01% BRIJ-35, 10 mM MgCl2, 1 mM EGTA. After the 1 hour Kinase Reaction incubation, 5 μL of a 1:64 dilution of Development Reagent A is added.
(§4) Reaction starts by 30-second shaking of mixture consisting of 2.5 μL 4× test compound, […] 2× kinase reaction mixture and 2.5 μL 4×ATP Solution on Bar-coded Corning, low volume NBS, black 384-well plate (Corning Cat. #3676). Then the mixture is incubated for 60-minute at room temperature for the kinase reaction, followed by addition of 5 μL of a 1:1024 dilution of development reagent A and 30-second plate shake. The mixture is then incubated for another 60-minute at room temperature for development reaction. Finally fluorescence is read by plate reader.

KDR (VEGFR2) = KDR (VEGFR2) (Homo sapiens (Human), UniProt P35968); assay: Z'-LYTE kinase inhibition assay, KDR; format: biochemical; settings: read-out: IC50 against KDR
Method: as §1, §2
(v) Peptide/Kinase Mixtures for Measurement of KDR (VEGFR2):
as §3, with “The 2×KDR (VEGFR2)/Tyr 01” for “The 2×JAK2/Tyr 06”, “of 0.5-11.7” for “of 0.06-0.81”, “ng KDR (VEGFR2)” for “ng JAK2”, “Tyr 01” for “Tyr 06”, “a 1:256” for “a 1:64”, “Reagent B” for “Reagent A”
as §4
To determine IC50 of a compound against EGFR, EGFR mutant and other kinases, a series of concentrations of the compound were tested for the inhibition. […] The scale utilized in Table 4 is as follows: +++ less than 100 nM, ++ 100-500 nM and + greater than 500 nM.

H1975 tumor xenografts = assay: Inhibition of tumor growth in H1975 xenograft model; format: in vivo, BALB/c female nude mice; settings: QD x 14; for Tumor Volume Pre-treatment: baseline before treatment
Method: H1975 cells were implanted in BALB/c female nude mice and grown as tumor xenografts. When tumors achieved 120-200 mm^3, mice were assigned into treatment and control groups using randomized block design based upon their tumor volumes. Each group contained 6 tumor-bearing mice. Tumors were measured twice weekly in two dimensions using a caliper, and the tumor volume was calculated from two-dimensional measurements using the equation V=0.5×a×b^2 where a and b are the long and short diameters of the tumor, respectively. Relative tumor volume (RTV) was defined as TVt/TVi, the ratio of the volume on a given day (TVt) and the volume at the start of treatment (TVi). Relative tumor growth rate (T/C) was defined as RTVT/RTVC, the ratio of relative tumor volume of treatment group (RTVT) and relative tumor volume of control group (RTVC) on a given day.

[1] = 30 mg/kg, Intraperitoneal injection

Sequence of JAK2 (O60674 whole entry): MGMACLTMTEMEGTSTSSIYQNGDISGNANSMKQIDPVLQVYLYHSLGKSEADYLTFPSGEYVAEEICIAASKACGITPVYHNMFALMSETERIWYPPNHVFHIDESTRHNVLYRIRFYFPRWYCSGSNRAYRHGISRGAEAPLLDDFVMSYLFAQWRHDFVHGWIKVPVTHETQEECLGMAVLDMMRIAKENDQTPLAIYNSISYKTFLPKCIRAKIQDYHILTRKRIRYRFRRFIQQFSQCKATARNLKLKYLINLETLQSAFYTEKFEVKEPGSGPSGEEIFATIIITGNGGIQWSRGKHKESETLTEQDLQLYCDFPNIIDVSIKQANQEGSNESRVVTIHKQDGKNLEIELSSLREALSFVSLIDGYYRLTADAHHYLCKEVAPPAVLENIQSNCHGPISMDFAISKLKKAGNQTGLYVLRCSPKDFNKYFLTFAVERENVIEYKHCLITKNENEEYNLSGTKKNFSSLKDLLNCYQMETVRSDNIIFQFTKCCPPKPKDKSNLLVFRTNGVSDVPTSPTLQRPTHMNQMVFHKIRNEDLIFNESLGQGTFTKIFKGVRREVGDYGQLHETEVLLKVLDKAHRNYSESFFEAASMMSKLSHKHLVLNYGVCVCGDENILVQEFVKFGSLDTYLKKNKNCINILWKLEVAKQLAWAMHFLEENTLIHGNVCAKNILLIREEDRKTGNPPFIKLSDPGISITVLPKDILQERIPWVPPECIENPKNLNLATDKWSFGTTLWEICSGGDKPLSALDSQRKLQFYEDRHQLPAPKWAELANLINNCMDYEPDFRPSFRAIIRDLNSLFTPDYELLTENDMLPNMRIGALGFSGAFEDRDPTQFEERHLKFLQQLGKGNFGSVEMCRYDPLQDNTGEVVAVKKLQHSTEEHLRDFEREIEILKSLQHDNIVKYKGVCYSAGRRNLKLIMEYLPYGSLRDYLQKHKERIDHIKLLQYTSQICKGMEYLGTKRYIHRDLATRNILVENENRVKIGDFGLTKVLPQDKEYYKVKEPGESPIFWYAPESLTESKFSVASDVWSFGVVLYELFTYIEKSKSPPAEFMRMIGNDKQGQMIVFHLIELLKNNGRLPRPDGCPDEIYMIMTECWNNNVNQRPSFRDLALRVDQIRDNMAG
Sequence of KDR (VEGFR2) (P35968 20-1356): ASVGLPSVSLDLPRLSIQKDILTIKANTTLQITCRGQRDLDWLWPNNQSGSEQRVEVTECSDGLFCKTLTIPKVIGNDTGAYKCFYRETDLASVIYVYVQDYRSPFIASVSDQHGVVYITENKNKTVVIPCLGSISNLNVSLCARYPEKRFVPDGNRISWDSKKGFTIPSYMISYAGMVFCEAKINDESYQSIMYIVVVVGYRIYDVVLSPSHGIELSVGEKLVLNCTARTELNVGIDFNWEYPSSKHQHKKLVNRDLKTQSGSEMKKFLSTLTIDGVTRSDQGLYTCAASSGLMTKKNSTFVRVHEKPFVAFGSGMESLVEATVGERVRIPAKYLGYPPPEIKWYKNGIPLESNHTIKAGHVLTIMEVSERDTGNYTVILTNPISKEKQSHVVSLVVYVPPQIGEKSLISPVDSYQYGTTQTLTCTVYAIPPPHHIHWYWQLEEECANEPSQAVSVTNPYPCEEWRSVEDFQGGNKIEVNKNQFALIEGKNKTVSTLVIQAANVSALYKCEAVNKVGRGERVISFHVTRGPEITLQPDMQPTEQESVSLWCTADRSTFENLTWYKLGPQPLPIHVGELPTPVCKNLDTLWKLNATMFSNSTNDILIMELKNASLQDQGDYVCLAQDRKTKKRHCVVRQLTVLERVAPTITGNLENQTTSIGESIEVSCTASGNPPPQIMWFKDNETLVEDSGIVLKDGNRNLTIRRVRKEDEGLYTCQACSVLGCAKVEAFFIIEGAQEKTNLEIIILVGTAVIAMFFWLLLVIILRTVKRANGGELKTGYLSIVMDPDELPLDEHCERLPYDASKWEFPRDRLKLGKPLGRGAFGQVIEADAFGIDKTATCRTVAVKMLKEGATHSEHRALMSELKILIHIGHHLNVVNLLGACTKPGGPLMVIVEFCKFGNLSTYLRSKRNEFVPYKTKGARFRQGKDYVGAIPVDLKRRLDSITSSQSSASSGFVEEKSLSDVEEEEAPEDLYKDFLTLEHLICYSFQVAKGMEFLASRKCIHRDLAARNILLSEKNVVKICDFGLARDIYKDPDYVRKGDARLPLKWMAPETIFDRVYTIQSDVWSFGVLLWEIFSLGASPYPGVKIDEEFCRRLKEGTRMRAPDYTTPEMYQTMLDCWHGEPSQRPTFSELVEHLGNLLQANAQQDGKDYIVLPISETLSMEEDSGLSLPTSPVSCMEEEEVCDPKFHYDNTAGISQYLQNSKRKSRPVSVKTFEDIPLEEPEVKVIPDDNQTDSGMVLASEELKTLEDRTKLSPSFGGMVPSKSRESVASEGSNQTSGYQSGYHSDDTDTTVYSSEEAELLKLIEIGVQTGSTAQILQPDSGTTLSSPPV
Sequence of EGFR (ErbB1) T790M (P00533 25-1210 T790M): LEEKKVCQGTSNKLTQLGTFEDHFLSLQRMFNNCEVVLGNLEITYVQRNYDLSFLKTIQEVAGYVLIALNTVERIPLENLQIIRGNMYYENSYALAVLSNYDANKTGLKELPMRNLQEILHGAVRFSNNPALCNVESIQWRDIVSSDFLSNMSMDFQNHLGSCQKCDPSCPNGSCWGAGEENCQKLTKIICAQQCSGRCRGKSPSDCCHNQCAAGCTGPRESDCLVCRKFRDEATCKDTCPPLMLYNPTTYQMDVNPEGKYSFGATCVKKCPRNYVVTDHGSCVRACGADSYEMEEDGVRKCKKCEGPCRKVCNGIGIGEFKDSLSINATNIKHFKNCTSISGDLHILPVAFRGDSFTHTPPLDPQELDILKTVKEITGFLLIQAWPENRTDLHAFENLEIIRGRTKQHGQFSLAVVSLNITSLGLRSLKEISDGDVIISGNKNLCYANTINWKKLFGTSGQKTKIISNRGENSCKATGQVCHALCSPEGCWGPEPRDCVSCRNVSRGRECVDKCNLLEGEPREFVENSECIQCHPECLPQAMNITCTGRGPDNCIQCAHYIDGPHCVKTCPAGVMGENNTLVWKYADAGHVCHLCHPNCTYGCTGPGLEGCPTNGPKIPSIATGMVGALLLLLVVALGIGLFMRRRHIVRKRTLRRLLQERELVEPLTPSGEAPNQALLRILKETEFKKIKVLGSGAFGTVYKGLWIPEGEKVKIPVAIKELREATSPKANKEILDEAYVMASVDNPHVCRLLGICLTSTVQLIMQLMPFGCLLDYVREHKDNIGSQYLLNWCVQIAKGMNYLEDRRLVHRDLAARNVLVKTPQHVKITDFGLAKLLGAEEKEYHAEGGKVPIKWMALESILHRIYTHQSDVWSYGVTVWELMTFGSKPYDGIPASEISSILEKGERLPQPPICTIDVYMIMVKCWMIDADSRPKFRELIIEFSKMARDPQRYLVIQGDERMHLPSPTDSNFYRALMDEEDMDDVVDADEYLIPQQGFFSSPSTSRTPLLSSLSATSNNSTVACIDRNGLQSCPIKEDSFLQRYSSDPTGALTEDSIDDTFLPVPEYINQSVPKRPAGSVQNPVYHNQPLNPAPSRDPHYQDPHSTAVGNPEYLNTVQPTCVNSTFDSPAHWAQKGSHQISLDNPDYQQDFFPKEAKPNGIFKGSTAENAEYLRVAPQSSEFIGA

Row | IC50 (H3255 cells) | inhibition at 1 µM (EGFR (ErbB1) T790M) | IC50 (A431 cells) | inhibition at 0.041 µM (JAK2) | Compound | also measured
1 | > 500 nM | > 50% | > 500 nM | – | C=CC(=O)Nc1cccc(-c2cccc3cnc(Nc4ccc(N5CCOCC5)cc4OC)nc23)c1 [Example C002, N-(3-(2-((2-methoxy-4-morpholinophenyl)amino)quinazolin-8-yl)phenyl)acrylamide] | –
2 | > 500 nM | > 50% | > 500 nM | – | C=CC(=O)Nc1cccc(-c2cccc3cnc(Nc4ccc(N5CCN(C)CC5)cc4OC)nc23)c1 [Example C003, N-(3-(2-((2-methoxy-4-(4-methylpiperazin-1-yl)phenyl)amino)quinazolin-8-yl)phenyl)acrylamide] | –
3 | > 500 nM | – | > 500 nM | – | C=CC(=O)Nc1cccc(-c2cccc3cnc(Nc4ccc(N5CCN(C)CC5)cc4F)nc23)c1 [Example C044, N-(3-(2-((2-fluoro-4-(4-methylpiperazin-1-yl)phenyl)amino)quinazolin-8-yl)phenyl)acrylamide] | –
4 | – | > 50% | > 500 nM | < 50% | C=CC(=O)Nc1cccc(-c2nccc3cnc(Nc4ccc(N5CCOCC5)cc4)nc23)c1 [Example C012, N-(3-(2-((4-morpholinophenyl)amino)pyrido[3,4-d]pyrimidin-8-yl)phenyl)acrylamide] | –
5 | – | < 50% | – | – | Fc1ccccc1-c1cccc2cnc(Nc3ccc(N4CCOCC4)cc3)nc12 [Example C010, 8-(2-fluorophenyl)-N-(4-morpholinophenyl)quinazolin-2-amine] | –
6 | – | < 50% | > 500 nM | – | Clc1ccccc1-c1cccc2cnc(Nc3ccc(N4CCOCC4)cc3)nc12 [Example C011, 8-(2-chlorophenyl)-N-(4-morpholinophenyl)quinazolin-2-amine] | –
7 | > 500 nM | > 50% | > 500 nM | > 50% | C=CC(=O)Nc1cccc(-c2cccc3cnc(Nc4ccc(N5CCOCC5)cc4)nc23)c1 [Example C001, N-(3-(2-((4-morpholinophenyl)amino)quinazolin-8-yl)phenyl)acrylamide] | –
8 | – | – | 100 to 500 nM | > 50% | C=CC(=O)Nc1cccc(-c2cccc3cnc(Nc4ccc(N5CCN(CCF)CC5)cc4)nc23)c1 [Example C053, N-(3-(2-((4-(4-(2-fluoroethyl)piperazin-1-yl)phenyl)amino)quinazolin-8-yl)phenyl)acrylamide] | –
9 | – | < 50% | – | – | Fc1ccc(Cl)cc1-c1cccc2cnc(Nc3ccc(N4CCOCC4)cc3)nc12 [Example C007, 8-(5-chloro-2-fluorophenyl)-N-(4-morpholinophenyl)quinazolin-2-amine] | –
10 | – | < 50% | – | > 50% | Fc1cccc(-c2cccc3cnc(Nc4ccc(N5CCOCC5)cc4)nc23)c1 [Example C009, 8-(3-fluorophenyl)-N-(4-morpholinophenyl)quinazolin-2-amine] | –
11 | – | < 50% | – | < 50% | C=CC(=O)Nc1cccc(-c2nccc3c(N)nc(Nc4ccc(N5CCOCC5)cc4)nc23)c1 [Example C005, N-(3-(4-amino-2-((4-morpholinophenyl)amino)pyrido[3,4-d]pyrimidin-8-yl)phenyl)acrylamide] | –
12 | – | < 50% | – | > 50% | Clc1cccc(-c2cccc3cnc(Nc4ccc(N5CCOCC5)cc4)nc23)c1 [Example C008, 8-(3-chlorophenyl)-N-(4-morpholinophenyl)quinazolin-2-amine] | –
13 | – | < 50% | – | > 50% | c1ccc(-c2cccc3cnc(Nc4ccc(N5CCOCC5)cc4)nc23)cc1 [Example C004, N-(4-morpholinophenyl)-8-phenylquinazolin-2-amine] | –

Row | Compound | IC50 (H3255 cells) | inhibition at 1 µM (EGFR (ErbB1) T790M) | IC50 (A431 cells) | inhibition at 0.041 µM (JAK2) | also measured
14 | C=CC(=O)Nc1cccc(-c2cccc3cnc(Nc4ccc(N5CCN(CCO)CC5)cc4)nc23)c1 [Example C059, N-(3-(2-((4-(4-(2-hydroxyethyl)piperazin-1-yl)phenyl)amino)quinazolin-8-yl)phenyl)acrylamide] | 100 to 500 nM | – | 100 to 500 nM | – | IC50 (KDR (VEGFR2)): < 100 nM; T/C (relative tumor growth rate) (H1975 tumor xenografts; 60 mg/kg, Oral): 35.3%; Tumor Volume Post-treatment (H1975 tumor xenografts; 60 mg/kg, Oral): 746.4 mm^3; Tumor Volume Pre-treatment (H1975 tumor xenografts; 60 mg/kg, Oral): 151.6 mm^3
15 | C=CC(=O)Nc1cccc(-c2cccc3cnc(Nc4ccc(N5CCN(C)CC5)cc4)nc23)c1 [Example C021, N-(3-(2-((4-(4-methylpiperazin-1-yl)phenyl)amino)quinazolin-8-yl)phenyl)acrylamide] | 100 to 500 nM | – | 100 to 500 nM | > 50% | IC50 (KDR (VEGFR2)): < 100 nM; T/C (relative tumor growth rate) (H1975 tumor xenografts; 60 mg/kg, Oral): 30.5%; Tumor Volume Post-treatment (H1975 tumor xenografts; 60 mg/kg, Oral): 633.5 mm^3; Tumor Volume Pre-treatment (H1975 tumor xenografts; 60 mg/kg, Oral): 152.5 mm^3
16 | C=CC(=O)Nc1cccc(-c2cccc3cnc(Nc4ccc(N5CCN(C)CC5)nc4)nc23)c1 [Example C041, N-(3-(2-((6-(4-methylpiperazin-1-yl)pyridin-3-yl)amino)quinazolin-8-yl)phenyl)acrylamide] | > 500 nM | – | > 500 nM | – | IC50 (KDR (VEGFR2)): < 100 nM; T/C (relative tumor growth rate) (H1975 tumor xenografts; [1]): 48.7%; Tumor Volume Post-treatment (H1975 tumor xenografts; [1]): 1021.2 mm^3; Tumor Volume Pre-treatment (H1975 tumor xenografts; [1]): 151.7 mm^3
